Here are results for 29 molecules from US10577363B2, “Substituted piperidine compounds” (EPIZYME, INC., priority 2014, dated 2020).

Experiment [1] has as its target T1, SMYD3 (Homo sapiens (Human), UniProt Q9H7B4). Nature of the experiment: SMYD3 cell assay (Trimethyl-MEKK2 In-Cell Western in 293T/17 cells). It counts as cell-based. The conditions noted are these: read-out: SMYD3 Cell IC50 (μM)*. The essentials:
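In-Cell Western readout: methanol-fixed cells stained for trimethyl-MEKK2 and flag tag, ratio per well normalized to DMSO and background controls.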

The target in experiment [2] is T1, SMYD3. The experiment can be described thus: SMYD3 biochemical assay (SPA, 3H-SAM methylation of MEKK2 protein substrate). The note with it: read-out: SMYD3 Biochem IC50 (μM)*. A digest of the protocol: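 Enzyme: untagged full-length human SMYD3 from E. coli; substrate GST-tagged MEKK2 from insect cells. Buffer 25 mM Tris-Cl pH 8.0, 1 mM TCEP, 0.005% BSG/Tween 20. 30 min compound–enzyme preincubation at RT; 3H-SAM/MEKK2 start; stop with cold SAM (100 uM final); SPA readout in cpm.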

Molecules are shown by their SMILES. Some results are limits rather than exact numbers.

T1 sequence (Q9H7B4 whole entry): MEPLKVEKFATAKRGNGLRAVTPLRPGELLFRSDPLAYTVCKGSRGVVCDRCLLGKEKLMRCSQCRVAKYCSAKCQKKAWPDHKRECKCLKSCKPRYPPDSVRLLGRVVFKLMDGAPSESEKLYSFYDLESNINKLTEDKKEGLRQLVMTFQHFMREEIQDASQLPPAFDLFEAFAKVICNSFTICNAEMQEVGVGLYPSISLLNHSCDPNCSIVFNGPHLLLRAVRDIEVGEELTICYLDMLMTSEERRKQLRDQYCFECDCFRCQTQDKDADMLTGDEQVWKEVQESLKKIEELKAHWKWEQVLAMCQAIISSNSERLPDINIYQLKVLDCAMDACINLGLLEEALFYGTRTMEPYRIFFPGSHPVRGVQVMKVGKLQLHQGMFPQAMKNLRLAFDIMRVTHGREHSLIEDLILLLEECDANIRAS

By IC50 is commonly meant the concentration needed to halve the response being measured. Turning to `C[C@@H]1CN(C(=O)CC2CCNCC2)CC[C@@H]1NC(=O)c1cc(C2CC2)on1` [compound 149, 5-cyclopropyl-N-((3R,4S)-3-methyl-1-(2-(piperidin-4-yl)acetyl)piperidin-4-yl)isoxazole-3-carboxamide], the IC50 was 3.22 µM in experiment [1] and 0.291 µM in experiment [2].
In the case of `NC1CCC(C(=O)N2CCC(NC(=O)c3cc(C4CC4)on3)C3(CC3)C2)CC1` (stereo not shown) [compound 156, N-(5-((1r,4r)-4-aminocyclohexane-1-carbonyl)-5-azaspiro[2.5]octan-8-yl)-5-cyclopropylisoxazole-3-carboxamide], the IC50 in experiment [1] turned out to be 1.76 µM; in experiment [2], 0.245 µM.
As for `C[C@@H]1CC(NC(=O)c2cc(C3CC3)on2)CCN1C(=O)C1CC2(CC(N)C2)C1` (stereo partly drawn) [compound 175, N-((2R)-1-(6-aminospiro[3.3]heptane-2-carbonyl)-2-methylpiperidin-4-yl)-5-cyclopropylisoxazole-3-carboxamide], the IC50 in experiment [1] stood at 0.983 µM; in experiment [2], 0.274 µM.
On the same counts, the results for `C[C@H]1C[C@@H](NC(=O)c2cc(C3CC3)on2)CCN1S(=O)(=O)CCCN` [compound 187] are 0.831 µM and 0.00409 µM.
As for `C[C@@H]1C[C@H](NC(=O)c2cc(C3CC3)on2)CCN1S(=O)(=O)CCCN` [compound 189, N-((2R,4R)-1-((3-aminopropyl)sulfonyl)-2-methylpiperidin-4-yl)-5-cyclopropylisoxazole-3-carboxamide], the figures for the IC50 in experiment [1] and in experiment [2] were 1.24 µM and 0.0559 µM, respectively.
`C[C@@H]1CC(NC(=O)c2cc(C3CC3)on2)CCN1C(=O)C12C3C4C1C1C2C3C41N` (stereo partly drawn) [compound 202, N-((2R)-1-(4-aminocubane-1-carbonyl)-2-methylpiperidin-4-yl)-5-cyclopropylisoxazole-3-carboxamide]: the IC50 came to 1.31 µM in experiment [1] and 0.142 µM in experiment [2].
For `NCCCS(=O)(=O)N1CCC(NC(=O)c2cc(C3CC3)on2)CC1` [compound 210, N-(1-((3-aminopropyl)sulfonyl)piperidin-4-yl)-5-cyclopropylisoxazole-3-carboxamide], the figures for the IC50 in experiment [1] and in experiment [2] were 2.9 µM and 0.321 µM, respectively.
As to `CC1(NC(=O)c2cc(C3CC3)on2)CCN(S(=O)(=O)CCCN)CC1` [compound 218, N-(1-((3-aminopropyl)sulfonyl)-4-methylpiperidin-4-yl)-5-cyclopropylisoxazole-3-carboxamide], the IC50 in experiment [1] was determined as 1.42 µM; in experiment [2] it was 0.23 µM.
On the same counts, the results for `CC1CC(NC(=O)c2cc(C3CC3)on2)CCN1C(=O)Cc1c[nH]cn1` (stereo not shown) [compound 227, N-(1-(2-(1H-imidazol-4-yl)acetyl)-2-methylpiperidin-4-yl)-5-cyclopropylisoxazole-3-carboxamide] are greater than 40 µM and greater than 10 µM.
As for `C[C@H]1C[C@@H](NC(=O)c2cc(C3CC3)on2)CCN1S(=O)(=O)CCc1ccccc1` [compound 235, 5-cyclopropyl-N-((2S,4S)-2-methyl-1-(phenethylsulfonyl)piperidin-4-yl)isoxazole-3-carboxamide], the results for the half-maximal inhibitory concentration (IC50) in experiment [1] and in experiment [2] were 3.3 µM and 1.33 µM, respectively.
On the same counts, the results for `C[C@H]1C[C@H](NC(=O)c2cc(C3CC3)on2)CCN1S(=O)(=O)Cc1ccccc1` [compound 244, N-((2S,4R)-1-(benzylsulfonyl)-2-methylpiperidin-4-yl)-5-cyclopropylisoxazole-3-carboxamide] are 14.1 µM and greater than 10 µM.
For the molecule `CC1CN(C(=O)[C@H]2CC[C@H](N)CC2)C(C)CC1NC(=O)c1cc(C2CC2)on1` (stereo partly shown) [compound 263, N-(1-((1r,4r)-4-aminocyclohexane-1-carbonyl)-2,5-dimethylpiperidin-4-yl)-5-cyclopropylisoxazole-3-carboxamide], the IC50 was found to be 0.569 µM in experiment [1] (293T/17 cells) and 0.0322 µM in experiment [2].
In the case of `NCCCC(=O)N1CC2CCC1CC2NC(=O)c1cc(C2CC2)on1` (stereo not shown) [compound 265, N-(2-(4-aminobutanoyl)-2-azabicyclo[2.2.2]octan-5-yl)-5-cyclopropylisoxazole-3-carboxamide], the IC50 in experiment [1] (293T/17 cells) was greater than 40 µM; in experiment [2], 5.45 µM.
On the same counts, the results for `C[C@H]1C[C@@H](NC(=O)c2cc(C3CC3)on2)CCN1C(=O)CC(CN)Cc1ccccc1` (stereo partly drawn) [compound 269, N-((2S,4S)-1-(4-amino-3-benzylbutanoyl)-2-methylpiperidin-4-yl)-5-cyclopropylisoxazole-3-carboxamide] are greater than 40 µM and greater than 10 µM.
Consider `C[C@@H]1C[C@@H](NC(=O)c2cc(C3CC3)on2)CCN1C(=O)CC(CN)Cc1ccccc1` (stereo partly drawn) [compound 270, N-((2R,4S)-1-(4-amino-3-benzylbutanoyl)-2-methylpiperidin-4-yl)-5-cyclopropylisoxazole-3-carboxamide], for which the IC50 in experiment [1] (293T/17 cells) is greater than 40 µM; in experiment [2] it was greater than 10 µM.
On the same counts, the results for `C[C@H]1C[C@H](NC(=O)c2cc(C3CC3)on2)CCN1C(=O)CC(CN)Cc1ccccc1` (stereo partly drawn) [compound 271, N-((2S,4R)-1-(4-amino-3-benzylbutanoyl)-2-methylpiperidin-4-yl)-5-cyclopropylisoxazole-3-carboxamide] are greater than 40 µM and greater than 10 µM.
On the same counts, the results for `C[C@@H]1C[C@H](NC(=O)c2cc(C3CC3)on2)CCN1C(=O)CC(CN)Cc1ccccc1` (stereo partly drawn) [compound 272, N-((2R,4R)-1-(4-amino-3-benzylbutanoyl)-2-methylpiperidin-4-yl)-5-cyclopropylisoxazole-3-carboxamide] are greater than 40 µM and greater than 10 µM.
On the same counts, the results for `C[C@H]1C[C@@H](NC(=O)c2cc(C3CC3)on2)CCN1S(=O)(=O)Cc1ccccc1` [compound 274, N-((2S,4S)-1-(benzylsulfonyl)-2-methylpiperidin-4-yl)-5-cyclopropylisoxazole-3-carboxamide] are 1.42 µM and 0.433 µM.
On to `C[C@H]1C[C@@H](NC(=O)c2cc(C3CC3)on2)CCN1S(=O)(=O)c1ccccn1` [compound 275, 5-cyclopropyl-N-((2S,4S)-2-methyl-1-(pyridin-2-ylsulfonyl)piperidin-4-yl)isoxazole-3-carboxamide], for which the IC50 in experiment [1] (293T/17 cells) came to 0.676 µM; in experiment [2], 0.154 µM.
On the same counts, the results for `C[C@@H]1C[C@@H](NC(=O)c2cc(C3CC3)on2)CCN1S(=O)(=O)c1cn(C)cn1` [compound 283, 5-cyclopropyl-N-((2R,4S)-2-methyl-1-((1-methyl-1H-imidazol-4-yl)sulfonyl)piperidin-4-yl)isoxazole-3-carboxamide] are greater than 40 µM and greater than 10 µM.
Turning to `C[C@H]1C[C@H](NC(=O)c2cc(C3CC3)on2)CCN1S(=O)(=O)c1ccccn1` [compound 286, 5-cyclopropyl-N-((2S,4R)-2-methyl-1-(pyridin-2-ylsulfonyl)piperidin-4-yl)isoxazole-3-carboxamide], the IC50 is 10.7 µM in experiment [1] (293T/17 cells) and greater than 10 µM in experiment [2].
On the same counts, the results for `C[C@H]1C[C@H](NC(=O)c2cc(C3CC3)on2)CCN1S(=O)(=O)c1cn(C)cn1` [compound 291, 5-cyclopropyl-N-((2S,4R)-2-methyl-1-((1-methyl-1H-imidazol-4-yl)sulfonyl)piperidin-4-yl)isoxazole-3-carboxamide] are greater than 40 µM and greater than 10 µM.
On the same counts, the results for `C[C@@H]1C[C@H](NC(=O)c2cc(C3CC3)on2)CCN1S(=O)(=O)c1ccccn1` [compound 293, 5-cyclopropyl-N-((2R,4R)-2-methyl-1-(pyridin-2-ylsulfonyl)piperidin-4-yl)isoxazole-3-carboxamide] are 7.19 µM and 4.84 µM.
On the same counts, the results for `C[C@@H]1C[C@H](NC(=O)c2cc(C3CC3)on2)CCN1S(=O)(=O)c1cn(C)cn1` [compound 294, 5-cyclopropyl-N-((2R,4R)-2-methyl-1-((1-methyl-1H-imidazol-4-yl)sulfonyl)piperidin-4-yl)isoxazole-3-carboxamide] are greater than 40 µM and greater than 10 µM.
For `C[C@@H]1C[C@H](NC(=O)c2cc(C3CC3)on2)CCN1S(=O)(=O)CCc1ccccc1` [compound 295, 5-cyclopropyl-N-((2R,4R)-2-methyl-1-(phenethylsulfonyl)piperidin-4-yl)isoxazole-3-carboxamide], the figures for the IC50 in experiment [1] (293T/17 cells) and in experiment [2] were greater than 40 µM and greater than 10 µM, respectively.
Consider `N[C@H]1CC[C@H](C(=O)N2CC[C@@H](NC(=O)c3cc(C4CC4)on3)C[C@H]2Cc2ccccc2)CC1` [compound 309, N-((2R,4R)-1-((1r,4R)-4-aminocyclohexane-1-carbonyl)-2-benzylpiperidin-4-yl)-5-cyclopropylisoxazole-3-carboxamide], for which the IC50 in experiment [1] (293T/17 cells) came to 16.8 µM; in experiment [2], 1.18 µM.
As to `N[C@H]1CC[C@H](C(=O)N2CC[C@H](NC(=O)c3cc(C4CC4)on3)C[C@@H]2Cc2ccccc2)CC1` [compound 310, N-((2S,4S)-1-((1r,4S)-4-aminocyclohexane-1-carbonyl)-2-benzylpiperidin-4-yl)-5-cyclopropylisoxazole-3-carboxamide], the IC50 was 8.1 µM in experiment [1] (293T/17 cells) and 0.733 µM in experiment [2].
On the same counts, the results for `C[C@@H]1C[C@H](NC(=O)c2cc(C3CC3)on2)CCN1C(=O)CC(CN)c1ccccc1` (stereo partly drawn) [compound 314, N-((2R,4R)-1-(4-amino-3-phenylbutanoyl)-2-methylpiperidin-4-yl)-5-cyclopropylisoxazole-3-carboxamide] are greater than 40 µM and 4.73 µM.
In the case of `C[C@H]1C[C@@H](NC(=O)c2cc(C3CC3)on2)CCN1S(=O)(=O)N(C)C` [compound 315, 5-cyclopropyl-N-((2S,4S)-1-(N,N-dimethylsulfamoyl)-2-methylpiperidin-4-yl)isoxazole-3-carboxamide], the IC50 in experiment [1] (293T/17 cells) came to 4.84 µM; in experiment [2], 1.33 µM.
